Results reported in US8846653B2, “Delta-tocotrienol treatment and prevention of pancreatic cancer” (University of South Florida, priority 2006, dated 2014).

Key:
[1] = test system: MiaPaCa2 pancreatic cancer cells; assay: Malignant transformation (Soft Agar) colony formation; type: cell-based, human; conditions: MiaPaCa2, 50 μM, vs vehicle
Experimental: FIG. 20 is a graph showing the effect of tocotrienols on pancreatic cancer malignant transformation (Soft Agar). […] Bars, SE (n=3). *p<0.001 vs. vehicle. **p<0.02 vs. vehicle. ***p<0.05 vs. vehicle. T=tocopherol, T3=tocotrienol.
MiaPaCa2 cells (3×10^3) were cultured as described in the Examples above, in 96-well plates and treated with 50 μM of different tocopherol or tocotrienol.

[2] = test system: human pancreatic ductal epithelial cells transformed with oncogenic K-ras (HPDE-K-ras); assay: Proliferation (MTT) of K-ras transformed ductal epithelial cells; type: cell-based; conditions: 72 hours
Experimental: FIGS. 36A and B are graphs showing the effect of tocotrienols on Human Pancreatic Ductal Epithelial Kras Transformed cells (MTT). (A) Tocotrienols (10-100 μM) had no effect on the proliferation of normal immortalized human pancreatic ductal epithelial cells at 72 hours. […] Points, means; bars, SE (n=3). *p<0.001 vs. vehicle. # p<0.02 vs. vehicle
The Ras effector pathways Raf-MEK-ERK and PI3 kinase-AKT are important for cell proliferation and survival, respectively. Pancreatic cancer cell lines (MIA PaCa2, SW1990, BXPC3) and HPDE 6C7 cells were treated with 8-tocotrienol (20 μM) and cell lysates were collected and prepared at progressive time intervals as described above. Proteins from lysates were run by SDS PAGE and immunoblotted with the following antibodies: Ras, p-cRaf (ser 338), p-MEK1/2, MEK1/2, pERK 44/42, ERK 44/42 (Cell Signaling) and c-Raf (BD Transduction Laboratories). […] The MIA PaCa2 and SW1990 cells were then tested for AKT inhibition. The cells were treated with δ-tocotrienol (20 μM) for 24 and 48 hours and cell lysates were run by SDS-PAGE and immunoblotted for p-AKT and AKT (Cell Signaling). […] Taken together, the inhibition of downstream effectors of oncogenic Ras signaling by δ-tocotrienol without an effect on Ras protein levels may indicate a negative regulatory role of 8-tocotrienol on the function of oncogenic Ras. The pancreatic ductal epithelial cell proliferative inhibition by δ-tocotrienol was tested to see if it occurs through blocking aberrant signal transduction cascades. Immortalized human pancreatic ductal epithelial cells (HPDE) and human pancreatic ductal epithelial cells that were transformed by stable transfection of a mutated K-ras oncogene (HPDE-K-ras) were used to test the. effect of tocotrienols on the proliferation of HPDE and HPDE-K-ras.

[3] = test system: AsPc1 pancreatic cancer cells; assay: Effect of tocotrienols on pancreatic cancer proliferation (MTT), 72 hours; type: cell-based, human; conditions: AsPc1, 40 to 100 μM, vs vehicle
Text: (§1) FIGS. 11A and B are graphs showing the effect of tocotrienols on pancreatic cancer proliferation (MTT). […] Points, means; bars, SE (n=3).

[4] = test system: MiaPaCa2 pancreatic cancer cells; assay: as above; type: cell-based, human; conditions: MiaPaCa2, 40 to 100 μM, vs vehicle
Text: as §1

[5] = test system: MiaPaCa2 pancreatic cancer cells; assay: Apoptosis by cell death ELISA, 72 hours; type: cell-based, human; conditions: MiaPaCa2, 50 μM
Experimental: (§2) FIGS. 38A and B are graphs showing the effect of tocotrienols on pancreatic cancer survival (Trypan Blue and Cell death ELISA). […] T3=tocotrienol, T=tocopherol, vit E=vitamin E succinate, gem=gemcitabine, 5-FU=fluorouracil.
(§3) MIA PaCa2 cells (3×10^3) were plated in 96 well plates and treated the following day with different compositions of tocoperhol, tocotrienol, gemcitabine, or fluorouracil. The cells were harvested 72 hours later and tested using trypan blue assay and cell death ELISA.

[6] = test system: MiaPaCa2 pancreatic cancer cells; assay: Cell death by trypan blue assay, 72 hours; type: cell-based, human; conditions: MiaPaCa2, 50 μM
Experimental: as §2, §3

MiaPaCa-2 cells = assay: MTS assay of MiaPaCa2 cultures, single 50 μM dose; type: cell-based, human; conditions: MiaPaCa2, 50 μM
Experimental: MiaPaCa-2 cells were cultured in complete DMEM media containing 10% fetal bovine serum (FBS) and 1% penicillin-streptomycin, and 1% L-glutamine. BxPc-3 pancreatic cancer cells were cultured in complete RPMI media containing 10% fetal bovine serum (FBS), and 1% penicillin-streptomycin, 1% HEPES buffer, 1% sodium pyruvate and 1% L-glutamine HPDE6-C7 cells were cultured in serum-free keratinocyte SFM media. All cells were maintained at 37° C. in a humidified incubator with 5% CO2. The cells were treated with a single 50 μM dose of vehicle (vehicle only, may be a solvent), T3 alpha (alpha tocotrienol), T3 beta (beta tocotrienol), T3 gamma (gamma tocotrienol), T3 delta (delta tocotrienol), T alpha (alpha tocopherol), T beta (beta tocopherol), TS (tocopherol succinate), GG (geranylgeraniol), SA (succinic acid). A control (no treatment) culture was grown alongside the treatments for comparison. […]

BXPC3 cells = assay: Proliferation by MTT, increasing concentrations of δ-tocotrienol; type: cell-based, human; conditions: BXPC3, at 24 hours; read-out: IC50 (inhibition of proliferation, MTT)
Experimental: FIG. 24 is a graph wherein BXPC3 pancreatic cancer cells (3×10^3) were plated in 96 well plates and treated the following day with δ-tocotrienol. Proliferation was assessed by MTT at 24 hour intervals. […] HPDE 6C7 cells were also treated with increasing concentrations of δ-tocotrienol for 24 hours.
MIA PaCa2, SW1990, BXPC3, and HPDE 6C7 cells (3×10^3) were cultured as described in the Examples above, in 96-well plates and treated the following day with increasing concentrations of δ-tocotrienol.

CC(C)=CCC/C(C)=C/CC/C(C)=C/CC[C@]1(C)CCc2cc(O)cc(C)c2O1 [T3 delta, delta tocotrienol]
malignant transformation (Soft Agar) [1]: significantly inhibited the malignant transformation | proliferation (MTT) [2]: significantly inhibited | proliferation (MTT) [3]: significantly decreased the proliferation | proliferation (MTT) [4]: significantly decreased the proliferation | apoptosis (Cell death ELISA) [5]: significantly induced | cell death (Trypan Blue) [6]: significantly induced the death | rel amt (relative value set to the control) (MiaPaCa-2 cells; 24 hours): 77 | MTS assay result, run 1 (MiaPaCa-2 cells; 24 hours): 0.174 | MTS assay result, run 2 (MiaPaCa-2 cells; 24 hours): 0.159 | MTS assay result, run 3 (MiaPaCa-2 cells; 24 hours): 0.171 | MTS assay result, run 4 (MiaPaCa-2 cells; 24 hours): 0.139 | MTS assay result, run 5 (MiaPaCa-2 cells; 24 hours): 0.185 | MTS assay result, run 6 (MiaPaCa-2 cells; 24 hours): 0.187 | MTS assay result, run 7 (MiaPaCa-2 cells; 24 hours): 0.18 | MTS assay result, run 8 (MiaPaCa-2 cells; 24 hours): 0.167 | MTS assay result, run 9 (MiaPaCa-2 cells; 24 hours): 0.170 | rel amt (relative value set to the control) (MiaPaCa-2 cells; 48 hours): 67 | MTS assay result, run 1 (MiaPaCa-2 cells; 48 hours): 0.229 | MTS assay result, run 2 (MiaPaCa-2 cells; 48 hours): 0.22 | MTS assay result, run 3 (MiaPaCa-2 cells; 48 hours): 0.218 | MTS assay result, run 4 (MiaPaCa-2 cells; 48 hours): 0.232 | MTS assay result, run 5 (MiaPaCa-2 cells; 48 hours): 0.294 | MTS assay result, run 6 (MiaPaCa-2 cells; 48 hours): 0.272 | MTS assay result, run 7 (MiaPaCa-2 cells; 48 hours): 0.221 | MTS assay result, run 8 (MiaPaCa-2 cells; 48 hours): 0.243 | MTS assay result, run 9 (MiaPaCa-2 cells; 48 hours): 0.241 | rel amt (relative value set to the control) (MiaPaCa-2 cells; 72 hours): 132 | MTS assay result, run 1 (MiaPaCa-2 cells; 72 hours): 0.667 | MTS assay result, run 2 (MiaPaCa-2 cells; 72 hours): 0.615 | MTS assay result, run 3 (MiaPaCa-2 cells; 72 hours): 0.605 | MTS assay result, run 4 (MiaPaCa-2 cells; 72 hours): 0.587 | MTS assay result, run 5 (MiaPaCa-2 cells; 72 hours): 0.582 | MTS assay result, run 6 (MiaPaCa-2 cells; 72 hours): 0.491 | MTS assay result, run 7 (MiaPaCa-2 cells; 72 hours): 0.524 | MTS assay result, run 8 (MiaPaCa-2 cells; 72 hours): 0.604 | MTS assay result, run 9 (MiaPaCa-2 cells; 72 hours): 0.584 | IC50 (BXPC3 cells): 20 to 25 µM
